Tests used:
[1] = test system: C33A cervical carcinoma cells; assay: caspase activation in lysates of treated cells (apoptosis); format: cell-based; conditions: C33A cancer cell line; 16 hr incubation; positive = 1.5-fold (150%) of dimethyl sulfoxide control
Method: (§1) H1299 non-small cell lung carcinoma cells, C33A cervical carcinoma cells, Mrc-5 normal lung fibroblasts (American Type Culture Collection, Manassas, Va. USA) and HMEC normal mammary epithelial cells (Clonetics San Diego, Calif., USA) were maintained in media recommended by the American Type Culture Collection. Cells were harvested and suspended at 2.5–5×10^5 cells/ml in media. A 45 μL aliquot of cell suspension was added to each well of a 96-well microtiter plate (PerkinElmer Life Sciences Inc, Boston, Mass. USA). Cells were incubated overnight in a 5% CO2-95% humidity incubator at 37° C. and then, 5 μL of a 10% dimethyl sulfoxide (Sigma-Aldrich Inc., St. Louis, Mo. USA) solution containing various concentrations of Compound 79 or 5 μL of 10% dimethyl sulfoxide (solvent control) were added. The plates were further incubated for 16 hr. […]
(§2) The reaction was then filtered using Sephadex G-10 Poly-Prep chromatography column (Amersham Biosciences, Inc, Piscataway, N.J., USA). […] The number of radioactive counts per minute (cpm) in each well of the sample plate was measured using a liquid scintillation counter (PerkinElmer Life Sciences Inc, Boston, Mass. USA). The potency of caspase cascade activation was determined by the percentage increase in cpm in wells compared to cells treated only with dimethyl sulfoxide.

[2] = test system: H1299 non-small cell lung carcinoma cells; assay: as above; format: cell-based; conditions: H1299 cancer cell line; 16 hr incubation; positive = 1.5-fold (150%) of dimethyl sulfoxide control
Method: as §1, §2

SMILES: COC1=CC(c2ccc[nH]2)=N/C1=C/c1cc2ccccc2[nH]1 [Compound 79, 4-methoxy-5-(1H-indol-2yl-methylene)-2,2′-bi-1H-pyrrole]
- Concentration Required for Positive Caspase Activation [1]: 125 µM
- Concentration Required for Positive Caspase Activation [2]: 250 µM

— patent US7144912B2, “Pyrrole-type compounds, compositions, and methods for treating cancer, treating viral diseases and causing immunosuppression” (Gemin X Biotechnologies Inc., priority 2001, dated 2006)
